Measured values from patent US9302991B2, “Arylamide derivatives as TTX-S blockers” (RaQualia Pharma Inc., priority 2010, dated 2016).
Values joined by “and” are separate entries in the source; they are usually repeats but may differ in a detail not shown here. Equal values may be shown once.

Biological target: T1, human Nav1.7 channels (Homo sapiens, UniProt Q15858)
T1 construct: expressed in transfected cells; host or cells: CHO
Test: FRET assay, human Nav1.7 (EFS on FDSS)
Format: cell-based
Details: CHO cells expressing human Nav1.7, read-out: IC50 against Nav1.7
Procedure, shortened: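 IC50 was derived from normalized 440 nm fluorescence ratios of the EFS-evoked membrane-potential response read on FDSS. Recombinant CHO cells were sequentially dye-loaded with coumarin/oxonol FRET pair at room temperature in pH 7.4 buffer before compound addition.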

T1 sequence (Q15858 whole entry): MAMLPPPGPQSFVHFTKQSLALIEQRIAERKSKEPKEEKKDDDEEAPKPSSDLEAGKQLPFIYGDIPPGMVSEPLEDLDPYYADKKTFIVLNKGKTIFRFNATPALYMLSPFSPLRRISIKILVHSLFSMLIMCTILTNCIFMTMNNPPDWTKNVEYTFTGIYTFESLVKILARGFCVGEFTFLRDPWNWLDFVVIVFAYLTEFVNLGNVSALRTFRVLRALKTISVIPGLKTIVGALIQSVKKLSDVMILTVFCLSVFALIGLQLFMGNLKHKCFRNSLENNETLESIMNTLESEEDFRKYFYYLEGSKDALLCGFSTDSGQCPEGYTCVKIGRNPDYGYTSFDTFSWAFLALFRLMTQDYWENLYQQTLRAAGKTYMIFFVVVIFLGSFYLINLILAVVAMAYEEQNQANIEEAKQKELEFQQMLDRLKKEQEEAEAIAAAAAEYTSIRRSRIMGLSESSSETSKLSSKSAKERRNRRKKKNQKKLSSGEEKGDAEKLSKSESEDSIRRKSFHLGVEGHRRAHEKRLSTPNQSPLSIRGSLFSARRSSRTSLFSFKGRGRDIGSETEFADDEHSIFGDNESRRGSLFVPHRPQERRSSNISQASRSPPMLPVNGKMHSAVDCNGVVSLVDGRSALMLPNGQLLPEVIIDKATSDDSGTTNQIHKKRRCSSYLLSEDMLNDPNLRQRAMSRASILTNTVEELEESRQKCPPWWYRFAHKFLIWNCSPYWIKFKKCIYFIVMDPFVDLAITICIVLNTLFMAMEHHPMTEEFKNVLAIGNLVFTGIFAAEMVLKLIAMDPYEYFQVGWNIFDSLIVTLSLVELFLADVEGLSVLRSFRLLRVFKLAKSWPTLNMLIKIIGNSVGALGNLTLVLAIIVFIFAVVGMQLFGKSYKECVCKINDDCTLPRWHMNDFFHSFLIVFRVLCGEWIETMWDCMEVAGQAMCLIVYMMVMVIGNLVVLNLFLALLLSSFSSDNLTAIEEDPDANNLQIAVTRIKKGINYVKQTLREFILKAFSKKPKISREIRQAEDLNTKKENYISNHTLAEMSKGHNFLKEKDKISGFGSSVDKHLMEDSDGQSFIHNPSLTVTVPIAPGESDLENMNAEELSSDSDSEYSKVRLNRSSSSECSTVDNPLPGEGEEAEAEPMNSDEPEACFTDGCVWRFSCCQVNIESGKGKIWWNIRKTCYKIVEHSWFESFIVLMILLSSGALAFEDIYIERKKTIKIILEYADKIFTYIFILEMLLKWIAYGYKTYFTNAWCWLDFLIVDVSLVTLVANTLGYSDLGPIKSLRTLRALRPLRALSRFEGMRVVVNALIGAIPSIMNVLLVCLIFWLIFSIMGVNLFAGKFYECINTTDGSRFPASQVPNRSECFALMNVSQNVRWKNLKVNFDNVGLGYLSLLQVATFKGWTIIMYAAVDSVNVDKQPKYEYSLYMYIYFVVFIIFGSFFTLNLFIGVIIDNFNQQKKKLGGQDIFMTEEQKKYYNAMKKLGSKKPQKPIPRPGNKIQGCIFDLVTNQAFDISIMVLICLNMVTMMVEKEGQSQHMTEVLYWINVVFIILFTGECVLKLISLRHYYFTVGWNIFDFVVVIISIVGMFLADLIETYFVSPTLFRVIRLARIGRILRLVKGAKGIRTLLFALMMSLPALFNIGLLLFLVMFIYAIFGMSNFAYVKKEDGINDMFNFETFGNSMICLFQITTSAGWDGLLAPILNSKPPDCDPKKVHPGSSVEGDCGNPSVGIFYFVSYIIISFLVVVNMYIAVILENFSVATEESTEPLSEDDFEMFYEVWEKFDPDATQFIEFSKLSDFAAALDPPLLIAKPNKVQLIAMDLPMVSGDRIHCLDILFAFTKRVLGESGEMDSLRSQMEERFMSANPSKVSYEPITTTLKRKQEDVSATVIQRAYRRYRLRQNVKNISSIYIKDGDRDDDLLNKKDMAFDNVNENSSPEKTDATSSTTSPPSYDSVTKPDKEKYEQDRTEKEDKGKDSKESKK

In the case of `CC(=O)Nc1cc(C(=O)NC(C)c2ccc(OCC(F)(F)F)nc2)ccn1` (single isomer, unassigned; (-)) [Example 1, (−)-2-acetamido-N-(1-(6-(2,2,2-trifluoroethoxy)pyridin-3-yl)ethyl)isonicotinamide], the IC50 is reported as < 1000 nM and 940 nM.
